Laboratory results: US12234207B2, “Halo-(3-(phenylsulfonyl)prop-1-enyl)pyridine derivative and use thereof” (Cureverse Incorporated, priority 2018, dated 2025)
“And” between values parts separate entries of the source, which are not always exact repeats. Equal entries are not always repeated.

Key:
Solubility in water = format: physicochemical
From the text: In the development of new drugs, the solubility of drugs is one of the very important factors associated with the bio-absorption rate. […] In addition, drugs with low solubility may crystallize in tissues or cause serious toxicity, and thus, the FDA requires additional research results on oral drugs with low solubility. Furthermore, low solubility may also be the biggest cause of failure in the development of candidate materials.

Nrf2 [1] = assay: Western blot of Nrf2 in nuclear extract of BV2 cells; format: cell-based; conditions: 0 μM to 10 μM, 6 hours, relative to Lamin B1
Procedure: Through Experimental Example 1, the activation of Nrf2 by the compounds of the present invention was indirectly confirmed. Thus, in order to directly confirm the effect of the compounds of the present invention on Nrf2 activation, Western blot was performed. […] Specifically, BV2 cells were loaded in a 25T flask at a density of 2×10^6 cells/flask in an amount of 4 mL and incubated in RPM1640 medium for 24 hours. […] The thus-incubated cells were recovered, and the nucleus and cytoplasmic extracts were separated. The thus-separated nuclear extract was electrophoresed by 10% SDS-PAGE, transferred to a PVDF membrane, and blocked with bovine serum albumin (BSA). Thereafter, the amount of Nrf2 protein in the nucleus was measured using an anti-Nrf2 antibody, and the results are shown in FIG. 1. The amount of Nrf2 was measured relative to Lamin B1, which refers to the same amount of nuclear extract.

GCLC, GCLM, and HO-1 = assay: Western blot of Nrf2-related antioxidant enzymes in BV2 cells; format: cell-based; conditions: 0 μM to 10 μM, 24 hours, relative to actin
From the text: As a transcription factor, Nrf2 acts to protect cells by increasing antioxidant enzymes in the nucleus. Through preceding Experimental Examples 1 and 6, the activation of Nrf2 by the compound of the present invention was confirmed directly or indirectly. Thus, whether the activated Nrf2 increases antioxidant enzymes was confirmed by measuring the amount of antioxidant enzymes using Western blot. As antioxidant enzymes to be detected, GCLC, GCLM, and HO-1, expression of which is known to increase due to Nrf2, were selected. Specifically, BV2 cells were loaded at a density of 5×10^5 cells/well in a 6-well plate in an amount of 1.5 mL, and incubated in RPM1640 medium for 24 hours. […] The thus-incubated cells were recovered and lysed to extract the total protein, and then subjected to electrophoresis by 10% SDS-PAGE. The total extract subjected to electrophoresis was transferred to a PVDF membrane and then blocked with bovine serum albumin. Thereafter, the amount of antioxidant enzymes expressed in cells was measured using antibodies corresponding to each antioxidant enzyme, and the results are shown in FIG. 2.

[2] = system: MPTP-induced Parkinson's disease model; assay: Vertical grid test in MPTP-induced Parkinson's disease mice; format: in vivo, C57/BL6 mice; conditions: orally 20 mg/mL once a day for 3 days from the day before MPTP; test 6 days after MPTP
Procedure: (§1) A specifically designed animal experiment schedule is shown at the top of FIG. 3. […] The MPTP-induced Parkinson's disease model was prepared by injecting 20 mg/kg of MPTP intraperitoneally at 2-hour intervals a total of 4 times in a day. In the negative control group, physiological saline solution containing no MPTP was injected at the same time. In order to confirm whether or not Parkinson's disease was induced, motor impairment caused by dopaminergic neuronal cell death, known as the main symptom of Parkinson's disease, was confirmed by a vertical grid test and a coat-hanger test.
The vertical grid test evaluates the time to climb down when an experimental animal model is placed on a vertical ladder. In the present invention, the time to turn towards the floor and the total time taken to climb down from the ladder were measured once the mice were placed on a ladder.

[3] = system: MPTP-induced Parkinson's disease model; assay: Coat-hanger test in MPTP-induced Parkinson's disease mice; format: in vivo, C57/BL6 mice; conditions: orally 20 mg/mL once a day for 3 days from the day before MPTP; time limit 3 minutes
Procedure: as §1
The coat-hanger test, which is another behavioral experiment that evaluates exercise ability, was conducted as follows, as shown in the bottom left of FIG. 3: when the mice were placed in the middle of a hanger 30 cm away from the floor, the mice moved toward a safe position on the top of the hanger while being hanged, and a score was assigned according to the position at the time point with a time limit of 3 minutes. The specific experimental method and the result are shown at the bottom of FIG. 3. As shown in the graph at the bottom of FIG. 3, most of the negative control moved to the top of the hanger, corresponding to 5 points, but in the case of the positive control, 2 to 3 points were recorded because the mice mainly stopped at both ends of the bottom of the hanger.

dopaminergic neurons = assay: Tyrosine hydroxylase immunohistochemical staining of corpus striatum and substantia nigra, MPTP mice; format: in vivo, C57/BL6 mice; conditions: Compound 15 orally
From the text: From the results of Experimental Example 8, the effect of restoring exercise ability by the compound of the present invention was confirmed. In order to confirm whether the recovery of such exercise ability was due to the neuroprotective effect of the compounds of the present invention, brains were excised from mice and analyzed by immunohistochemical staining using tyrosine hydroxylase used as a marker for dopaminergic neurons. As a site for analysis, the corpus striatum and substantia nigra, which are concentrated with dopaminergic neurons, were selected. Specifically, after anesthetizing the mice in the negative control group, the positive control group, and the experimental group with avertin, physiological saline and 4% formaldehyde were injected into the heart, and the brain was excised, which was sequentially immersed in 4% formaldehyde and 30% sucrose, and stored in the refrigerator for one day each. Thereafter, the tissue fragments of the corpus striatum and substantia nigra were obtained from the stored brain using a cryosectioning machine. The brain tissue fragments were stained by DAB staining using a tyrosine hydroxylase antibody, which is specifically expressed in dopaminergic neurons, by immunohistochemical staining, and observed with a microscope, and the results are shown in FIG. 4.

[4] = background statement; cited from earlier work
CYP 2C19 = molecular target: T1, CYP 2C19 (Homo sapiens, UniProt P33261); assay: Inhibition of CYP activity in human liver microsomes, 2C19; format: in vitro ADME; conditions: 10 μM compound, human liver microsomes 0.25 mg/mL; % activity relative to the negative control
T1 construct: from tissue; host or cells: human liver microsomes
T1 sequence (P33261 whole entry): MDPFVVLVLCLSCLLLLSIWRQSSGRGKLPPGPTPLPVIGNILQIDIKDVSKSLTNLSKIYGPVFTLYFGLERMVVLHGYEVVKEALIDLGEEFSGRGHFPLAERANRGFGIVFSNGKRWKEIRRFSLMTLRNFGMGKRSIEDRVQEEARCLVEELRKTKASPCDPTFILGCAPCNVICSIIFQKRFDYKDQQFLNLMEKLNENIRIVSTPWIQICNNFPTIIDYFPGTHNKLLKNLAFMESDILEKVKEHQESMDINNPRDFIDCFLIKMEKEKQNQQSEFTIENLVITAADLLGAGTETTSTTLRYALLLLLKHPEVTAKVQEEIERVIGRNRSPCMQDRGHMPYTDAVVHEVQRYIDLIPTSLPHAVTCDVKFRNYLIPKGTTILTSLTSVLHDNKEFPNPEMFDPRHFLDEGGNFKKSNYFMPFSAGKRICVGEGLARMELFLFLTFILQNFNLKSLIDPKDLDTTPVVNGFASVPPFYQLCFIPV
Procedure: (§2) Thereafter, the reaction was terminated by adding an acetonitrile solution containing an internal standard substrate (terfenadine), followed by centrifugation (14,000 rpm, 4° C.) for 5 minutes. Subsequently, the supernatant was injected into the LC-MS/MS system, and the metabolites of the substrate drugs were simultaneously analyzed to evaluate the inhibitory ability of these compounds on drug metabolic enzymes. The metabolites of each CYP isoenzyme indicator drug generated through the above reaction were analyzed using the Shimadzu Nexera XR system and TSQ vantage (Thermo). A Kinetex C18 column was used as the HPLC column, and distilled water containing 0.1% formic acid and acetonitrile containing 0.1% formic acid were used as the mobile phase. The generated metabolites were quantified using the quantification mode of multiple reaction monitoring (MRM), and data were analyzed with Xcalibur (version 1.6.1).

CYP 2D6 = molecular target: T2, CYP 2D6 (Homo sapiens, UniProt P10635); assay: Inhibition of CYP activity in human liver microsomes, 2D6; format: in vitro ADME; conditions: 10 μM compound, human liver microsomes 0.25 mg/mL; % activity relative to the negative control
T2 construct: from tissue; host or cells: human liver microsomes
T2 sequence (P10635 whole entry): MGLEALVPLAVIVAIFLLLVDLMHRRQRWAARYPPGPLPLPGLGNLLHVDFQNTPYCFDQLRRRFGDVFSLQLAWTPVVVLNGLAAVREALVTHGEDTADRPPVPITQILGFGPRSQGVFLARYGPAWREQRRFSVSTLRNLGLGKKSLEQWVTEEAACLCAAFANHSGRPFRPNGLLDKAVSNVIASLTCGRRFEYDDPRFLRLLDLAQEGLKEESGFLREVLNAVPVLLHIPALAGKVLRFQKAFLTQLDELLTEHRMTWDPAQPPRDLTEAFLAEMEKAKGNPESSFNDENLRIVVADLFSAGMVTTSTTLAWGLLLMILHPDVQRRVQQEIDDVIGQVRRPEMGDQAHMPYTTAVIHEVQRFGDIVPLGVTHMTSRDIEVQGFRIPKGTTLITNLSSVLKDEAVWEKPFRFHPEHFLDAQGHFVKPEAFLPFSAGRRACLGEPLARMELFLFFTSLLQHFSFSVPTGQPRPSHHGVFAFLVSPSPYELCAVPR
Procedure: as §2

CYP 2C9 = molecular target: T3, CYP 2C9 (Homo sapiens, UniProt P11712); assay: Inhibition of CYP activity in human liver microsomes, 2C9; format: in vitro ADME; conditions: 10 μM compound, human liver microsomes 0.25 mg/mL, % activity relative to the negative control
T3 construct: from tissue; host or cells: human liver microsomes
T3 sequence (P11712 whole entry): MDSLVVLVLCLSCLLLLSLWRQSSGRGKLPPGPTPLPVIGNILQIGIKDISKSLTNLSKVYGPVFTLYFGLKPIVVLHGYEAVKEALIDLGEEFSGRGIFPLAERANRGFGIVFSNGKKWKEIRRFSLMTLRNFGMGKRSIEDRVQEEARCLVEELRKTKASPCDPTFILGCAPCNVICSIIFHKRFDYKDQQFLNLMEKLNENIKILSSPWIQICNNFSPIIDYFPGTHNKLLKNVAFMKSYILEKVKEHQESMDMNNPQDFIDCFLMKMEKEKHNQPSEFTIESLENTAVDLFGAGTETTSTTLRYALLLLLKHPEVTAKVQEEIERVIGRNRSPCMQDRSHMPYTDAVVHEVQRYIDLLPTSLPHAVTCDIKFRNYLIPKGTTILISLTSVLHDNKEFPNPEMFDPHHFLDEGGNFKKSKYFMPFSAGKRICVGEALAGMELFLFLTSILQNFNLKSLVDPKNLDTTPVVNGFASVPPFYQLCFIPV
Procedure: as §2

CYP 3A4 = molecular target: T4, CYP 3A4 (Homo sapiens, UniProt P08684); assay: Inhibition of CYP activity in human liver microsomes, 3A4; format: in vitro ADME; conditions: 10 μM compound, human liver microsomes 0.25 mg/mL; % activity relative to the negative control
T4 construct: from tissue; host or cells: human liver microsomes
T4 sequence (P08684 whole entry): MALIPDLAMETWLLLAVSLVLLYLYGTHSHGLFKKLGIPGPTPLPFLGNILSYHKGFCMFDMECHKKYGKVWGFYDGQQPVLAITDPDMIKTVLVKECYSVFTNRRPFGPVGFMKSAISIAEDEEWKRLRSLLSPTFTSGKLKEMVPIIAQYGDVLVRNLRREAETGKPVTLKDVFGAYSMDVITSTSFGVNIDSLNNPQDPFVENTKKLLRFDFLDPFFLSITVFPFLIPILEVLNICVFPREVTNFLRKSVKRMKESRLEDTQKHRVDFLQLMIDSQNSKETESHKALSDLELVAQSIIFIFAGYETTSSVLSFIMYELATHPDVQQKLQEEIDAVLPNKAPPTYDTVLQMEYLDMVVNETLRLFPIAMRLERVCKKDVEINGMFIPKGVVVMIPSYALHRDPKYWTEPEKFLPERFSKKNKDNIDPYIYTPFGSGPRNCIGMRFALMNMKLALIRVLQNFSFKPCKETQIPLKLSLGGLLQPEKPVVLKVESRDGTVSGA
Procedure: as §2

hERG channel = hERG channel (Homo sapiens, UniProt Q12809); assay: hERG channel-binding inhibition (fluorescent tracer polarization); conditions: hERG channel-containing membrane
Sequence of hERG channel (Q12809 whole entry): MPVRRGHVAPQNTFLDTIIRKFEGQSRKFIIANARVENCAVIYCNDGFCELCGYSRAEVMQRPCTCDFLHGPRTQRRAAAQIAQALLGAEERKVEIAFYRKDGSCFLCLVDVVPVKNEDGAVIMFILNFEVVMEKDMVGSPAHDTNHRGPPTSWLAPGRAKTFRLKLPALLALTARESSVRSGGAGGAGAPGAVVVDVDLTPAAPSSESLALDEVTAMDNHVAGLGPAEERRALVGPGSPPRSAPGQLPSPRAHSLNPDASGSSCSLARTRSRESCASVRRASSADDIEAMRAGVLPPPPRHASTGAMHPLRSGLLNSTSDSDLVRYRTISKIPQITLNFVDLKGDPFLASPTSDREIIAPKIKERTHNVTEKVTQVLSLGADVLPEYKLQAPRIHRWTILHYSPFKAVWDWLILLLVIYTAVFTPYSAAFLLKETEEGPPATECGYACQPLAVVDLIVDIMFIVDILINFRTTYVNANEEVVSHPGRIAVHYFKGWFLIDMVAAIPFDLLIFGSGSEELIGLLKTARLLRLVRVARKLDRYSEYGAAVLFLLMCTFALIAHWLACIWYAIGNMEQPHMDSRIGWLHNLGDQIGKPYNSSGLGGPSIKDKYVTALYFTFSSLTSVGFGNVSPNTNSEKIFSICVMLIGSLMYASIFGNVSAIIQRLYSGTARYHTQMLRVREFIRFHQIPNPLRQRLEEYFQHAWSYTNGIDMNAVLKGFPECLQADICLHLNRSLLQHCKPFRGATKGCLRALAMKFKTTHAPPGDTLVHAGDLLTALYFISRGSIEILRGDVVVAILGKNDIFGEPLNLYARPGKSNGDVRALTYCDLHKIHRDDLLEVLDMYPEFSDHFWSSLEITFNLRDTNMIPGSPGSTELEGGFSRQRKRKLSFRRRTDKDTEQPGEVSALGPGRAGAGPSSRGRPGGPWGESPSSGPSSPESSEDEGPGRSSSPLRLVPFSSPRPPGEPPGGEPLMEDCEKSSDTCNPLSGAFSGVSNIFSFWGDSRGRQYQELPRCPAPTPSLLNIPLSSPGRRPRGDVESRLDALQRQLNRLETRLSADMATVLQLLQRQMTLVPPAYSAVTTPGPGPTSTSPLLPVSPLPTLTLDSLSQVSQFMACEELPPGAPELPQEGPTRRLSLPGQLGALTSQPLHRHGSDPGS
From the text: The human ether-a-go-go-related gene (hERG) ion channel is an important component of cardiac repolarization, and inhibitors of this channel can induce arrhythmia and sudden death. […] When a fluorescent hERG channel tracer binds to a membrane containing the hERG channel protein, the rotation of the tracer is restricted, thereby maintaining a high polarization state. However, when a competitive inhibitor binds to the hERG channel, the tracer is competitively pushed away from the membrane and depolarized as it loses its direction.

Nrf2 [5] = assay: Nrf2 functional cell-based assay (DisoveRx), luminescence; conditions: relative to Compound 15
[6] = background statement; cited from earlier work; remark: listed apart in the source
[7] = background statement, cited from earlier work
[8] = when administered into the body

Row | Compound | solubility (Solubility in water) [µg/mL] | Amount of Nrf2 protein in the nucleus (Nrf2 [1]) | Expression of Nrf2 and antioxidant enzymes GCLC, GCLM, and HO-1 (GCLC, GCLM, and HO-1) | Vertical grid test: time to turn [2] | Vertical grid test: total time to climb down [2] | Coat-hanger test score, average [3] [points] | Tyrosine hydroxylase staining of corpus striatum and substantia nigra (dopaminergic neurons) | Time until dissipated when administered into the body [4] [h] | CYP 2C19 activity (CYP 2C19) [%] | CYP 2D6 activity (CYP 2D6) [%] | CYP 2C9 activity (CYP 2C9) [%] | CYP 2C9 activity (CYP 2C9; listed as Comparative Example 1) [%] | CYP 3A4 activity (CYP 3A4) [%] | IC50 (hERG channel) | Effect of inducing Nrf2 activity as % of the level of Compound 15 (Nrf2 [5]) | Solubility in water (in words) [6] | Cardiac toxicity [7] | Bioavailability [7, 8] | Drug metabolic stability [7, 8]
1 | Cl.O=S(=O)(/C=C/c1ncccc1F)c1ccc(OCCCN2CCOCC2)cc1 [Compound 15, (E)-4-(3-(4-(2-(3-fluoropyridin-2-yl)vinylsulfonyl)phenoxy)propyl)morpholine hydrochloride] | ≥ 10000 | promotes the activation of Nrf2 in a concentration-dependent manner | increased the expression of antioxidant enzymes through Nrf2 activation in a concentration-dependent manner | reduced again to a level similar to that of the negative control group | reduced again to a level similar to that of the negative control group | ≥ 4 | the staining became dark again |  |  |  |  |  |  |  |  |  |  |  | 
2 | C[S+]([O-])CCCCN=C=S (centres unmarked) [SFN (sulforaphane), 1-isothiocyanato-4-methylsulfinylbutane] |  |  |  |  |  |  |  | ≤ 1 |  |  |  |  |  |  |  |  |  |  | 
3 | COc1ccccc1S(=O)(=O)/C=C/c1ccccc1Cl [VSC2, (E)-1-chloro-2-(2-(2-methoxyphenylsulfonyl)vinyl)benzene, reference compound] | ≤ 10 |  |  |  |  |  |  |  | 16.8 | 54.9 | 100.0 | 100 | 55.6 | 1000 nM and 1200 nM | about 60% | low | cardiac toxicity | low | low
